Where no end group is shown, it is not given here.
Legend:
[1] = system: thyroparathyroidectomized (TPTX) rats; assay: Repeated daily administration in TPTX rats (11‐day treatment, 12‐day study); type: in vivo, rat
Protocol: TPTX rats were injected i.v. or s.c. with vehicle or vehicle containing a PTH peptide, or orally treated once daily with vehicle (medium‐chain triglyceride; Chugai Pharma Manufacturing, Tokyo, Japan) or vehicle containing alfacalcidol (Chugai Pharma Manufacturing) for 11 days. Blood samples were obtained from the tail or jugular vein immediately before and at times after injection. Urine samples at 0 to 8 hours or 8 to 24 hours, were collected in metabolic cages. sCa and uCa, serum inorganic phosphorus (sPi) and urinary phosphorus (uPi), and creatinine (uCre) were measured with an automatic analyzer (7180; Hitachi, Ltd, Chiyoda, Tokyo, Japan). Urinary deoxypyridinoline (uDpD) was measured using a Metra DPD EIA kit (DS Pharma Biomedical, Osaka, Japan), and the data were normalized to the uCre concentrations. Serum FGF23 was measured using FGF23 ELISA assay (Immunodiagnostik AG, Bensheim, Germany). Serum 1,25‐dihydroxyvitamin D [1,25(OH)2D3] levels were determined by a ELISA immunoassay (Immunodiagnostic System Ltd, Bolden, UK).
Figure 4 Effects of 11‐day treatment (12‐day study) with M‐PTH/PTHrP or alfacalcidol on serum calcium (sCa) in thyroparathyroidectomized (TPTX) rats. TPTX rats were treated for 11 days with daily s.c. injection of either vehicle or M‐PTH/PTHrP, or with daily oral alfacalcidol at the indicated doses, and sham‐surgery control rats were s.c. injected daily with vehicle. The levels of Ca in serum and urine were assessed. Blood samples were collected from the jugular vein at 8 hours (A) and at 24 hours (B) after the last treatment administration, and assessed for total sCa. Total urine was collected in metabolic cages over the time intervals of 0 to 8 hours (C), and 8 to 24 hours (D) and assessed for total urinary Ca. Data are means ± SEM; n = 6 or 5 (2.0 and 4.0 nmol/kg of M‐PTH/PTHrP); *p < 0.05 M‐PTH/PTHrP versus TPTX‐vehicle; #p < 0.05 TPTX vehicle versus sham.
Supplementary file JBM4-4-e10367-s001.pdf: Figure S1 PTH ligand‐induced cAMP‐signaling responses in GP‐2.3 cells Time course of the cAMP‐dependent luminescence response measured at 2‐minute intervals in the presence of each ligand at 10 nM (Ligand on‐phase) and B) Time course of the cAMP‐dependent luminescence response measured at 2‐minute intervals after washout of unbound ligand (Ligand wash‐out phase). GP‐2.3 cells preloaded with luciferin were treated with a concentration of PTH ligand at a concentration of 10 nM for 30 min, and cAMP‐dependent luminescence was measured at two‐minute intervals (ligand‐on phase). The cells were then removed from the plate reader, rinsed twice with media to remove unbound ligand, and then fresh media containing luciferin but lacking ligand was added and luminescence was assessed for additional 90 min (Ligand wash‐out phase). Data are means (± SEM) of four experiments, each performed in triplicate. Figure S2. In vivo calcemic actions of M‐PTH/PTHrP hybrid analogs in normal rats. The indicated M‐PTH/PTHrP hybrid analogs (sequences are shown in Figure 1) along with PTH(1–34) and PTHrP(1–36) controls, were administered at the indicated doses by i.v. injection, and at the indicated time points blood was collected from the tail vein and measured for ionized calcium (Ca^2+). Panels A‐C represent three separate experiments. Data are means ± SEM; n = 6 or 4 (80 nmol/kg of M‐PTH(1‐11)/PTHrP(12–36), M‐PTH(1‐14)/PTHrP(12–36), M‐PTH(1‐17)/PTHrP(18–36) and 1.25 nmol/kg of M‐PTH(1–30)/PTHrP(31–36)). *p < 0.05 versus Vehicle. Figure S3. Effects of 11 days treatment (12 days study) of M‐PTH/PTHrP on serum 1,25(OH) 2 Vitamin‐D3, urinary deoxypyridinoline (Dpd) and serum FGF23 in TPTX rats. Serum and urine samples obtained from the TPTX and sham control rats of the two‐week daily‐administration experiment shown in Figure 4 were analyzed by ELISA for the indicated markers. A) serum 1,25(OH)2Vitamin‐D3. B) urinary deoxypyridinoline (DpD)/Cre. C) serum FGF23. […]

[2] = biological target: T1, human PTHR1 (R^0 conformation) (Homo sapiens, UniProt Q03431); assay: Competition binding to the R^0 conformation of PTHR1
T1 construct: expressed in transfected cells; host or cells: COS-7 cells (transient transfection; membranes)
T1 sequence (Q03431 27-593): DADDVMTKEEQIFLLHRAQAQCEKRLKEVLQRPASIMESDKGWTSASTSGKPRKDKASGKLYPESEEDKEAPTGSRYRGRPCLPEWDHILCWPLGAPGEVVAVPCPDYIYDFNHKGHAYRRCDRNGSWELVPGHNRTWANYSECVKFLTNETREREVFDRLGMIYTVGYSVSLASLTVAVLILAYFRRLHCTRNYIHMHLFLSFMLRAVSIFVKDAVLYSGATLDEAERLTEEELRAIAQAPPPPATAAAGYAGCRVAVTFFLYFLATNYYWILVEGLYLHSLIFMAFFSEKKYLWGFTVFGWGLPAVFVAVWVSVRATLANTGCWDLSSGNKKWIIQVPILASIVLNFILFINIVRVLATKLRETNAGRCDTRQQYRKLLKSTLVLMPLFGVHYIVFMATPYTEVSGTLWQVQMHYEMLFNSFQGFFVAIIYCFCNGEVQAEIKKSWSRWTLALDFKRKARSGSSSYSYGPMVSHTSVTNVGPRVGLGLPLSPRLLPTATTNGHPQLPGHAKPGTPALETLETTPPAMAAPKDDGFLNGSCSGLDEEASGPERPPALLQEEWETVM

human PTHR1 = biological target: T2, human PTHR1 (Homo sapiens, UniProt Q03431); assay: GloSensor cAMP signaling assay in GP‐2.3 cells; type: cell-based
T2 construct: expressed in transfected cells
T2 sequence (Q03431 27-593): T1 sequence (Q03431 27-593)
Protocol: GP‐2.3 cells, an HEK‐293 cell‐ (ATCC CRL‐1573) derived cell line that stably expresses the luciferase‐based pGloSensor‐22F (GloSensor) cAMP reporter plasmid (Promega Corp., […], USA) along with the human PTHR1, were cultured in DMEM (Thermo Fisher Scientific, Waltham, MA, USA) supplemented with FBS (10%). Cells were seeded into white 96‐well plates for GloSensor cAMP assays, and used for assay 2 to 3 days after the monolayer became confluent.16 UGS‐56 cells were derived from the UMR106 rat osteoblastic cell line by stably transfecting the cells to express the GloSensor‐cAMP reporter. B64 cells are a derivative of the porcine kidney cell line, LLC‐PK1 that stably expresses the human PTHR1. COS‐7 cells (ATCC CRL‐1661) were seeded into 10‐cm dishes and transiently transfected to express the human PTHR1 with or without a high‐affinity, negative‐dominant Gαs subunit; 2 days after transfection, the cells were harvested for membrane preparations.13 All transfections were performed using the Fugene HD reagent (Promega Corp.).
Changes in cAMP levels were assessed in intact GP‐2.3 or UGS‐56 cells via the (GloSensor) cAMP reporter. The intact cells in white 96‐well plates were preloaded with luciferin in CO2‐independent culture media (Thermo Fisher) for 20 min at room temperature, then treated with a test ligand diluted in the same media and placed into a Envision plate reader (PerkinElmer, Waltham, MA, USA) for an additional 30 min, during which time cAMP‐dependent luminescence was measured at 2‐min intervals (ligand‐on phase). […] For washout responses, the cells were treated as above, and after the ligand‐on phase, the plate was removed from the plate reader, the cells were rinsed with media, then fresh media containing only luciferin was added and luminescence was measured for an additional 90 min (washout phase). EC50 values were determined using the 4‐parameter sigmoidal dose–response equation in Prism 8.0 (GraphPad Software, Inc., La Jolla, CA, USA).
The cells were then removed from the plate reader, rinsed twice with media to remove unbound ligand, and then fresh media containing luciferin but lacking ligand was added and luminescence was assessed for additional 90 min (Ligand wash‐out phase). Data are means (± SEM) of four experiments, each performed in triplicate. Figure S2. […] Panels A‐C represent three separate experiments. […] Figure S3. […] Serum and urine samples obtained from the TPTX and sham control rats of the two‐week daily‐administration experiment shown in Figure 4 were analyzed by ELISA for the indicated markers. A) serum 1,25(OH)2Vitamin‐D3. B) urinary deoxypyridinoline (DpD)/Cre. C) serum FGF23. […] Serum and urine samples obtained from the TPTX and sham control rats of the two‐week daily‐administration experiment shown in Figure 4 were analyzed for total inorganic phosphorus (Pi). […] Figure S5. […] B) The same peptides were assessed at a concentration of 3 nM for the capacity to stimulate cAMP formation in HKRK‐B64 cells (LLC‐PK1 cells stably expressing the hPTHR1, cAMP measured by RIA). […] Data in A and B are means (±SEM) of three experiments, each performed in triplicate or quadruplicate. […] D) The same analogs as in C were assessed at a 3.0 nM concentration for the capacity to stimulate cAMP formation in HKRK‐B64 cells. Data are means (±SEM) of three experiments, each performed in duplicate. […] Data are means (±SEM) of duplicate determinations of a single experiment representative of three others. Click here for additional data file.

[3] = biological target: T3, human PTHR1 (RG conformation) (Homo sapiens, UniProt Q03431); assay: Competition binding to the RG conformation of PTHR1
T3 construct: expressed in transfected cells; host or cells: COS-7 cells (transient co-transfection; membranes)
T3 sequence (Q03431 27-593): T1 sequence (Q03431 27-593)

| uCa excretion ([1]; daily oral 0.2 μg/kg, 0‐ to 8‐ and 8‐ to 24‐hour intervals) | IC50 [2] [nM] | Emax (human PTHR1) [%] | IC50 [3] [nM] | Compound | Serum levels of FGF23 ([1]; M‐PTH/PTHrP at 4.0 and 8.0 nmol/kg s.c., alfacalcidol at 0.2 μg/kg oral, daily, ELISA) | sCa levels ([1]; daily oral 0.2 μg/kg) | sPi levels ([1]; daily oral, especially at the 0.2 μg/kg dose) |
| --- | --- | --- | --- | --- | --- | --- | --- |
| high uCa excretion levels |  |  |  | C=C1/C(=C\C=C2/CCC[C@]3(C)[C@@H]([C@H](C)CCCC(C)C)CC[C@@H]23)C[C@@H](O)C[C@@H]1O [alfacalcidol, 1α‐hydroxycholecalciferol] | significantly increased | comparable to those of the sham group | normalized sPi levels |
|  | 2.98 ± 0.48 | 106 ± 4 | 0.21 ± 0.03 | AVAEIQLMHQRAKWLNSMERVEWLRKKLQDIHTAEI [M‐PTH(1‐30)/PTHrP(31‐36)] |  |  |  |
|  | 1.66 ± 0.22 | 107 ± 5 | 0.13 ± 0.02 | AVAEIQLMHQRAKWLNSMRRRFFLHHLIAEIHTAEI [M‐PTH(1‐18)/PTHrP(19‐36)] |  |  |  |
|  | 1.91 ± 0.39 | 105 ± 5 | 0.23 ± 0.02 | AVAEIQLMHQRAKWLNSLRRRFFLHHLIAEIHTAEI [M‐PTH(1‐17)/PTHrP(18‐36)] |  |  |  |
|  | 7.8 ± 2.55 | 104 ± 4 | 0.67 ± 0.02 | AVAEIQLMHQRAKWLNSMERVEFLHHLIAEIHTAEI [M‐PTH(1‐22)/PTHrP(23‐36)] |  |  |  |
|  | 2.14 ± 0.47 | 103 ± 3 | 0.55 ± 0.15 | AVAEIQLMHQRGKSIQDLRRRFFLHHLIAEIHTAEI [M‐PTH(1‐11)/PTHrP(12‐36)] |  |  |  |
|  | 1.73 ± 0.75 | 106 ± 5 | 0.13 ± 0.04 | AVAEIQLMHQRAKWLNSMERVEWLRKLIAEIHTAEI [M‐PTH(1‐26)/PTHrP(27‐36)] |  |  |  |
